Measured values from BigSolDB 2.1.

CC1(C)O[C@@H]2[C@@H](CO[C@@]3(COS(N)(=O)=O)OC(C)(C)O[C@@H]23)O1
solubility (mole fraction)
Settings | 278.15 K | 283.15 K | 288.15 K | 293.15 K | 298.15 K | 303.15 K | 308.15 K | 313.15 K | 318.15 K | 323.15 K
in 2-butoxyethanol | 0.0541 | 0.0602 | 0.0676 | 0.0756 | 0.0849 | 0.0986 | 0.111 | 0.124 | 0.14 | 0.157
in 2-ethoxyethanol | 0.11 | 0.118 | 0.126 | 0.137 | 0.149 | 0.162 | 0.173 | 0.191 | 0.209 | 0.229
in 2-methoxyethanol | 0.149 | 0.156 | 0.165 | 0.176 | 0.187 | 0.198 | 0.212 | 0.228 | 0.245 | 0.263
in 2-propoxyethanol | 0.0726 | 0.0803 | 0.089 | 0.0981 | 0.109 | 0.121 | 0.134 | 0.15 | 0.167 | 0.187
in ethanol | 0.0169 | 0.0202 | 0.0252 | 0.0315 | 0.039 | 0.0478 | 0.0628 | 0.079 | 0.102 | 0.129
in isobutanol | 0.00375 | 0.004 | 0.00525 | 0.00684 | 0.00911 | 0.0121 | 0.0166 | 0.0225 | 0.0314 | 0.0441
in isopentanol | 0.00308 | 0.00401 | 0.0052 | 0.00684 | 0.00905 | 0.0119 | 0.0147 | 0.0197 | 0.0261 | 0.0353
in isopropanol | 0.00638 | 0.00814 | 0.0106 | 0.014 | 0.0186 | 0.0247 | 0.0299 | 0.0408 | 0.0594 | 0.0818
in methanol | 0.0401 | 0.0476 | 0.0569 | 0.0683 | 0.081 | 0.0951 | 0.112 | 0.131 | 0.148 | 0.174
in n-butanol | 0.00495 | 0.00629 | 0.00804 | 0.0103 | 0.0131 | 0.0172 | 0.0231 | 0.0298 | 0.0397 | 0.0538
in n-heptanol | 0.00256 | 0.00327 | 0.00425 | 0.0054 | 0.00686 | 0.00877 | 0.0116 | 0.015 | 0.0196 | 0.0256
in n-hexanol | 0.0029 | 0.00363 | 0.00496 | 0.00628 | 0.00807 | 0.0104 | 0.0138 | 0.018 | 0.0236 | 0.0312
in n-pentanol | 0.00373 | 0.00472 | 0.00601 | 0.00747 | 0.00969 | 0.0126 | 0.0157 | 0.0207 | 0.0272 | 0.0367
in n-propanol | 0.00715 | 0.00923 | 0.0116 | 0.0148 | 0.0187 | 0.0252 | 0.0333 | 0.0439 | 0.0591 | 0.0794
